Test results taken from US12643886B2 (Ontario Institute for Cancer Research (OICR), priority 2021, dated 2026).

Tests used:
Type in all cases: biochemical
[1] = target: T1, NUAK1 (Homo sapiens, UniProt O60285); experiment: Counter-screen against NUAK1
T1 sequence (O60285 1-661): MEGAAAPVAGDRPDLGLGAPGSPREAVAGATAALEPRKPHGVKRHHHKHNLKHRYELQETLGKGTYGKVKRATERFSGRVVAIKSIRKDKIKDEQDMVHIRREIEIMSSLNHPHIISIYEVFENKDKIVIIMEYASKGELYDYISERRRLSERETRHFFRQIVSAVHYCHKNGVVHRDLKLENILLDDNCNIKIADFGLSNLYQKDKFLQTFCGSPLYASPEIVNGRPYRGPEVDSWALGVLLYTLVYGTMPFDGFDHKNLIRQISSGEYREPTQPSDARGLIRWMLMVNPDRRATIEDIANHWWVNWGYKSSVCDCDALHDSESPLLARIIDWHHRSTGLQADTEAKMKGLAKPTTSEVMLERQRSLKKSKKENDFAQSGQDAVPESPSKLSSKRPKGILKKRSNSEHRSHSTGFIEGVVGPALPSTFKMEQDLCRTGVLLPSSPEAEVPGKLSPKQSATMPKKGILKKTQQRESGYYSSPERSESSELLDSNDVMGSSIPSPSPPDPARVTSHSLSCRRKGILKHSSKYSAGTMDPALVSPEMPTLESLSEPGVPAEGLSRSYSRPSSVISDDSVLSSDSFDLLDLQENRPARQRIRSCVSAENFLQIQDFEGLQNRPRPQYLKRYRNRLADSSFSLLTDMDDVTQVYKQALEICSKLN
Protocol: (§1) To identify small molecule NUAK inhibitors, a biochemical NUAK2 enzymatic assay were outsourced to Eurofins. This assay was done radiometrically using full-length, recombinant enzyme. NUAK2 (h) was incubated with 8 mM MOPS pH 7.0, 0.2 mM EDTA, 300 μM […], 10 mM magnesium acetate and […] (specific activity and concentration as required). The reaction was initiated by the addition of the Mg/ATP mix. After incubation for 40 minutes at room temperature, the reaction was stopped by the addition of phosphoric acid to a concentration of 0.5%. 10 μL of the reaction was then spotted onto a P30 filtermat and washed four times for 4 minutes in 0.425% phosphoric acid and once in methanol prior to drying and scintillation counting. Compounds were routinely counter-screened against Aurora A and NUAK1. The results are shown in Table 1 where IC50's are reported in the following ranges: A: 0.1-10 nM; B: 11-100 nM; C: 101-1000 nM; D: >1000 nM for the compounds of Formula (I)

[2] = target: T2, Aurora A (Homo sapiens, UniProt O14965); experiment: Counter-screen against Aurora A; settings: read-out: AUR-A (IC50)
T2 sequence (O14965 1-403): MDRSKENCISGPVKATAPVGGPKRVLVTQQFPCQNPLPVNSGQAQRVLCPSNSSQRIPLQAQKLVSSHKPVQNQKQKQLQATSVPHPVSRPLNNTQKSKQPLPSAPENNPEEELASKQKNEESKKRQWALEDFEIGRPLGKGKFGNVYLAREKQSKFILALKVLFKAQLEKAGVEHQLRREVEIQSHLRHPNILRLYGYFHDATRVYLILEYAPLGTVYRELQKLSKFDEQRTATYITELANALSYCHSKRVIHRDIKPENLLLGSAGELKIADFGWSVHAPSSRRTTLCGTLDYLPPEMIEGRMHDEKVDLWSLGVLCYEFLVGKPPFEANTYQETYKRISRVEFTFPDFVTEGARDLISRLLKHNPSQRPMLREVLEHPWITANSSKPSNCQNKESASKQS
Protocol: as §1

[3] = target: T3, NUAK2 (h) (Homo sapiens, UniProt Q9H093); experiment: NUAK2 enzymatic assay (radiometric, Eurofins); settings: full-length recombinant enzyme
T3 construct: This assay was done radiometrically using full-length, recombinant enzyme; purchased Eurofins
T3 sequence (Q9H093 1-628): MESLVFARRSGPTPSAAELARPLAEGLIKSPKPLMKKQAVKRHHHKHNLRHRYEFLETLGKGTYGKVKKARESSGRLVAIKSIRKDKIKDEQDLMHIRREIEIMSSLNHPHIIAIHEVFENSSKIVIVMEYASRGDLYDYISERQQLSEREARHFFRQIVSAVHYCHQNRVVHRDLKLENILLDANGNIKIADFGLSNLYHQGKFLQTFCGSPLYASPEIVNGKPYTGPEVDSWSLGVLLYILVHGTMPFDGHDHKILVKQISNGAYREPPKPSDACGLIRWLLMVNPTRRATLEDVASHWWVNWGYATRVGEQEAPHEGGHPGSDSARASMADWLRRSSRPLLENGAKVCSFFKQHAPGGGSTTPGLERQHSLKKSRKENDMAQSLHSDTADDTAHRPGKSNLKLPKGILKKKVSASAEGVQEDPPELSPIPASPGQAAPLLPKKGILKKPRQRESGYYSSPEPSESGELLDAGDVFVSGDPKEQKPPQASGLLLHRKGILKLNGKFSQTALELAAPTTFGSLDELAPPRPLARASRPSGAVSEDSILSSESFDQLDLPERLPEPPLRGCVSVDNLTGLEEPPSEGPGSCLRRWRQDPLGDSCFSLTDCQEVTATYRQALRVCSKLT
Protocol: as §1

Work on `CN1CCN(c2ccc(Nc3ncc(Cl)c(Nc4cccc5c4C(=O)NC5)n3)c(OC(F)F)c2)CC1` [Compound I-1, 7-((5-chloro-2-((2-(difluoromethoxy)-4-(4-methylpiperazin-1-yl)phenyl)amino)pyrimidin-4-yl)amino)isoindolin-1-one] yielded an IC50 [1] of 11 to 100 nM, an IC50 [2] of 101 to 1000 nM and an IC50 [3] of 0.1 to 10 nM.
`CCN1CCN(c2ccc(Nc3nccc(Nc4cccc5c4C(=O)NC5)n3)cc2F)CC1` [Compound I-2, 7-((2-((4-(4-ethylpiperazin-1-yl)-3-fluorophenyl)amino)pyrimidin-4-yl)amino)isoindolin-1-one] showed an IC50 [1] of 0.1 to 10 nM, an IC50 [2] of 0.1 to 10 nM and an IC50 [3] of 11 to 100 nM.
In the case of `COc1cc2c(cc1Nc1ncc(Cl)c(Nc3cccc4c3C(=O)NC4)n1)CN(C)CC2` [Compound I-3, 7-((5-chloro-2-((6-methoxy-2-methyl-1,2,3,4-tetrahydroisoquinolin-7-yl)amino)pyrimidin-4-yl)amino)isoindolin-1-one], the IC50 [1] is reported as 101 to 1000 nM, the IC50 [2] is reported as 101 to 1000 nM and the IC50 [3] is reported as 11 to 100 nM.
With `CCN1CCN(c2ccc(Nc3ncc(Cl)c(Nc4cccc5c4C(=O)NC5)n3)cc2F)CC1` [Compound I-4, 7-((5-chloro-2-((4-(4-ethylpiperazin-1-yl)-3-fluorophenyl)amino)pyrimidin-4-yl)amino)isoindolin-1-one] the IC50 [1] was 11 to 100 nM, the IC50 [2] was 0.1 to 10 nM and the IC50 [3] was 0.1 to 10 nM.
With `COc1cc(N2CCN(C)CC2)ccc1Nc1ncc(Cl)c(Nc2cccc3c2C(=O)NC3)n1` [Compound I-5, 7-((5-chloro-2-((2-methoxy-4-(4-methylpiperazin-1-yl)phenyl)amino)pyrimidin-4-yl)amino)isoindolin-1-one] the IC50 [1] was 11 to 100 nM, the IC50 [2] was 11 to 100 nM and the IC50 [3] was 0.1 to 10 nM.
`COc1c(Nc2ncc(Cl)c(Nc3cccc4c3C(=O)NC4)n2)ccc(N2CCN3CCCC3C2)c1F` (stereo not shown) [Compound I-6, 7-((5-chloro-2-((3-fluoro-4-(hexahydropyrrolo[1,2-a]pyrazin-2(1H)-yl)-2-methoxyphenyl)amino)pyrimidin-4-yl)amino)isoindolin-1-one] gave an IC50 [1] of 11 to 100 nM, an IC50 [2] of 101 to 1000 nM and an IC50 [3] of 11 to 100 nM.
`COc1c(Nc2ncc(Cl)c(Nc3cccc4c3C(=O)NC4)n2)ccc(N2CCC(N3CCN(C)CC3)CC2)c1F` [Compound I-7, 7-((5-chloro-2-((3-fluoro-2-methoxy-4-(4-(4-methylpiperazin-1-yl)piperidin-1-yl)phenyl)amino)pyrimidin-4-yl)amino)isoindolin-1-one] showed an IC50 [1] of 11 to 100 nM, an IC50 [2] of 101 to 1000 nM and an IC50 [3] of 11 to 100 nM.
Compound `CN1CCN(c2ccc(Nc3ncc(Cl)c(Nc4cccc5c4C(=O)NC5)n3)c(C(F)(F)F)c2)CC1` [Compound I-8, 7-((5-chloro-2-((4-(4-methylpiperazin-1-yl)-2-(trifluoromethyl)phenyl)amino)pyrimidin-4-yl)amino)isoindolin-1-one] has an IC50 [1] of 101 to 1000 nM, an IC50 [2] of 101 to 1000 nM and an IC50 [3] of 11 to 100 nM.
For `CN1CCN(C2CCN(c3ccc(Nc4ncc(Cl)c(Nc5cccc6c5C(=O)NC6)n4)c(OC(F)F)c3)CC2)CC1` [Compound I-9, 7-((5-chloro-2-((2-(difluoromethoxy)-4-(4-(4-methylpiperazin-1-yl)piperidin-1-yl)phenyl)amino)pyrimidin-4-yl)amino)isoindolin-1-one], the IC50 [1] was 11 to 100 nM, the IC50 [2] was 101 to 1000 nM and the IC50 [3] was 0.1 to 10 nM.
Work on `CN1CCc2ccc(Nc3ncc(Cl)c(Nc4cccc5c4C(=O)NC5)n3)cc2C1` [Compound I-10, 7-((5-chloro-2-((2-methyl-1,2,3,4-tetrahydroisoquinolin-7-yl)amino)pyrimidin-4-yl)amino)isoindolin-1-one] yielded an IC50 [1] of 0.1 to 10 nM, an IC50 [2] of 0.1 to 10 nM and an IC50 [3] of 0.1 to 10 nM.
With `CC(C)Oc1cc(N2CCN(C)CC2)ccc1Nc1ncc(Cl)c(Nc2cccc3c2C(=O)NC3)n1` [Compound I-11, 7-((5-chloro-2-((2-isopropoxy-4-(4-methylpiperazin-1-yl)phenyl)amino)pyrimidin-4-yl)amino)isoindolin-1-one] the IC50 [1] was over 1000 nM, the IC50 [2] was over 1000 nM and the IC50 [3] was 101 to 1000 nM.
For `COc1cc2c(cc1Nc1ncc(Cl)c(Nc3cccc4c3C(=O)NC4)n1)CCN(C)C2` [Compound I-12, 7-((5-chloro-2-((7-methoxy-2-methyl-1,2,3,4-tetrahydroisoquinolin-6-yl)amino)pyrimidin-4-yl)amino)isoindolin-1-one], the IC50 [1] was 11 to 100 nM, the IC50 [2] was over 1000 nM and the IC50 [3] was 0.1 to 10 nM.
In the case of `COc1nc(N2CCC(N3CCN(C)CC3)CC2)ccc1Nc1ncc(Cl)c(Nc2cccc3c2C(=O)NC3)n1` [Compound I-13, 7-((5-chloro-2-((2-methoxy-6-(4-(4-methylpiperazin-1-yl)piperidin-1-yl)pyridin-3-yl)amino)pyrimidin-4-yl)amino)isoindolin-1-one], the IC50 [1] is reported as 11 to 100 nM, the IC50 [2] is reported as 11 to 100 nM and the IC50 [3] is reported as 0.1 to 10 nM.
Compound `COc1nc(N2CCN(C)CC2)ccc1Nc1ncc(Cl)c(Nc2cccc3c2C(=O)NC3)n1` [Compound I-14, 7-((5-chloro-2-((2-methoxy-6-(4-methylpiperazin-1-yl)pyridin-3-yl)amino)pyrimidin-4-yl)amino)isoindolin-1-one] has an IC50 [1] of 0.1 to 10 nM, an IC50 [2] of 11 to 100 nM and an IC50 [3] of 11 to 100 nM.
With `Cc1c(N2CCN(C)CC2)ccc(Nc2ncc(Cl)c(Nc3cccc4c3C(=O)NC4)n2)c1Cl` [Compound I-15, 7-((5-chloro-2-((2-chloro-3-methyl-4-(4-methylpiperazin-1-yl)phenyl)amino)pyrimidin-4-yl)amino)isoindolin-1-one] the IC50 [1] was 11 to 100 nM, the IC50 [2] was 101 to 1000 nM and the IC50 [3] was 11 to 100 nM.
`COc1cc2c(cc1Nc1ncc(Cl)c(Nc3cccc4c3C(=O)NC4)n1)CN(C)CC2(C)C` [Compound I-16, 7-((5-chloro-2-((6-methoxy-2,4,4-trimethyl-1,2,3,4-tetrahydroisoquinolin-7-yl)amino)pyrimidin-4-yl)amino)isoindolin-1-one] showed an IC50 [1] of 11 to 100 nM, an IC50 [2] of over 1000 nM and an IC50 [3] of 11 to 100 nM.
For `COc1cc2c(cc1Nc1ncc(Cl)c(Nc3cccc4c3C(=O)NC4)n1)CCNC2` [Compound I-17, 7-((5-chloro-2-((7-methoxy-1,2,3,4-tetrahydroisoquinolin-6-yl)amino)pyrimidin-4-yl)amino)isoindolin-1-one], the IC50 [1] was 11 to 100 nM, the IC50 [2] was over 1000 nM and the IC50 [3] was 11 to 100 nM.
Work on `CN1CCN(c2ccc(Nc3ncc(Cl)c(Nc4ccc(F)c5c4C(=O)NC5)n3)c(OC(F)F)c2)CC1` [Compound I-84, 7-((5-chloro-2-((2-(difluoromethoxy)-4-(4-methylpiperazin-1-yl)phenyl)amino)pyrimidin-4-yl)amino)-4-fluoroisoindolin-1-one] yielded an IC50 [2] of over 1000 nM and an IC50 [3] of 0.1 to 10 nM.
For `COc1cc(CN(C)C)ccc1Nc1ncc(Cl)c(Nc2ccc(F)c3c2C(=O)NC3)n1` [Compound I-85, 7-((5-chloro-2-((4-((dimethylamino)methyl)-2-methoxyphenyl)amino)pyrimidin-4-yl)amino)-4-fluoroisoindolin-1-one], the IC50 [2] was over 1000 nM and the IC50 [3] was 11 to 100 nM.
